Test results published in PubChem BioAssay (NCI).
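Step 1: Grow cells in 96-well plates. Step 2: Expose to compound for 48 hours at 5 concentrations. Step 3: Interpolate endpoints linearly; if unreached, use highest concentration. TGI denotes the concentration required for complete inhibition of growth.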

Columns and labels:
Assay in all cases: DTP human tumour cell line panel, 48 h
A549 NSCLC = tested on: A549 NSCLC
OVCAR-5 ovarian = tested on: OVCAR-5 ovarian
IGROV1 ovarian = tested on: IGROV1 ovarian
OVCAR-3 ovarian = tested on: OVCAR-3 ovarian
HCT-15 colon = tested on: HCT-15 colon
UO-31 renal = tested on: UO-31 renal
SK-MEL-2 melanoma = tested on: SK-MEL-2 melanoma
DMS 114 small cell lung = tested on: DMS 114 small cell lung
U251 CNS = tested on: U251 CNS
HT29 colon = tested on: HT29 colon
SF-295 CNS = tested on: SF-295 CNS
OVCAR-8 ovarian = tested on: OVCAR-8 ovarian
SNB-19 CNS = tested on: SNB-19 CNS
XF 498 CNS = tested on: XF 498 CNS
HOP-62 NSCLC = tested on: HOP-62 NSCLC
HOP-92 NSCLC = tested on: HOP-92 NSCLC
SN12C renal = tested on: SN12C renal
NCI-H23 lung = tested on: NCI-H23 lung
M19-MEL melanoma = tested on: M19-MEL melanoma
CAKI-1 renal = tested on: CAKI-1 renal
HL-60(TB) leukemia = tested on: HL-60(TB) leukemia
M14 melanoma = tested on: M14 melanoma
TK-10 renal = tested on: TK-10 renal
SK-OV-3 ovarian = tested on: SK-OV-3 ovarian
UACC-257 melanoma = tested on: UACC-257 melanoma
RPMI-8226 leukemia = tested on: RPMI-8226 leukemia
DMS 273 small cell lung = tested on: DMS 273 small cell lung
SK-MEL-28 melanoma = tested on: SK-MEL-28 melanoma
EKVX NSCLC = tested on: EKVX NSCLC
RXF-631 renal = tested on: RXF-631 renal
RXF 393 renal = tested on: RXF 393 renal
HOP-18 NSCLC = tested on: HOP-18 NSCLC
UACC-62 melanoma = tested on: UACC-62 melanoma
A498 renal = tested on: A498 renal
SNB-75 CNS = tested on: SNB-75 CNS
SF-539 CNS = tested on: SF-539 CNS
SK-MEL-5 melanoma = tested on: SK-MEL-5 melanoma
SW-620 colon = tested on: SW-620 colon
ACHN renal = tested on: ACHN renal
COLO 205 colon = tested on: COLO 205 colon
NCI-H226 lung = tested on: NCI-H226 lung
NCI-H522 lung = tested on: NCI-H522 lung
LOX IMVI melanoma = tested on: LOX IMVI melanoma
NCI-H460 lung = tested on: NCI-H460 lung
K-562 leukemia = tested on: K-562 leukemia
MALME-3M melanoma = tested on: MALME-3M melanoma
CCRF-CEM leukemia = tested on: CCRF-CEM leukemia
OVCAR-4 ovarian = tested on: OVCAR-4 ovarian
KM20L2 colon = tested on: KM20L2 colon
786-0 renal = tested on: 786-0 renal
MOLT-4 leukemia = tested on: MOLT-4 leukemia
SF-268 CNS = tested on: SF-268 CNS
KM12 colon = tested on: KM12 colon
LXFL 529 NSCLC = tested on: LXFL 529 NSCLC
DLD-1 colon = tested on: DLD-1 colon
HCT-116 colon = tested on: HCT-116 colon
HCC-2998 colon = tested on: HCC-2998 colon
SR leukemia = tested on: SR leukemia
SNB-78 CNS = tested on: SNB-78 CNS

Measured: TGI

Nc1nc[n+](Cc2ccccc2CCO)c2nc[nH]c12
not listed: DLD-1 colon | HCT-116 colon | HCC-2998 colon | SR leukemia | SNB-78 CNS
> 100 µM: all other assays above

CC1=C(C(=O)CC(=O)C(=O)Nc2cccc(Cl)c2C)Sc2ccccc2N1
not listed: DMS 273 small cell lung | A498 renal | SNB-75 CNS | COLO 205 colon | KM20L2 colon
> 100 µM: all other assays above
